The source of these data is ChEMBL document CHEMBL1201862, “PubChem BioAssay data set” (2004).

Among the test systems are A549; SF-268; HL-60; NCI-H522; UACC-257; RXF 393; UO-31; COLO 205; HOP-92; RPMI-8226; NCI-H226; M14; OVCAR-5; OVCAR-8; HCT-15; DU-145; MDA-N; PC-3; MDA-MB-435.
Common to all, as to experiment: inhibition of tumour cell growth, NCI panel, 48 h

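Grown in 96-well plates, cells were treated for 48 hours with each compound at five concentrations. Insufficient inhibition: endpoint recorded as highest concentration tested. Abbreviation: GI50, concentration required for 50% inhibition of growth.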 The source made the active and inactive calls. Cut-off read from the data, not from the text of the source: active = GI50 up to about 1.1 µM and inactive = higher. A value given as a limit tells only on which side of the number the result lay.

Turning to `O=C1CCC(=O)c2ccccc2N1`, the GI50 in the experiment with A549, in the experiment with SF-268, in the experiment on HL-60, with NCI-H522, in the experiment with UACC-257 and in the experiment with RXF 393 was > 100 µM (inactive) each time. For the same compound, the GI50 in the experiment on UO-31, in the experiment with COLO 205, with HOP-92, in the experiment with RPMI-8226, with NCI-H226 and in the experiment with M14 was > 100 µM (inactive) each time. Besides, the GI50 is > 100 µM (inactive) in the experiment with OVCAR-5, > 100 µM (inactive) in the experiment on OVCAR-8 and greater than 100 µM in the experiment with HCT-15.

For `C#CCOCn1cc(C)c(=O)[nH]c1=O`, the GI50 with A549, in the experiment with SF-268, with DU-145, in the experiment with MDA-N, in the experiment with HL-60 and with UACC-257 was > 100 µM (inactive) throughout. For the same compound, the GI50 in the experiment on UO-31, with COLO 205, in the experiment on PC-3, with RPMI-8226, with NCI-H226 and in the experiment with M14 was > 100 µM (inactive) each time. The GI50 is > 100 µM (inactive) with OVCAR-5, > 100 µM (inactive) in the experiment on OVCAR-8 and greater than 100 µM in the experiment on HCT-15.

Take `Nc1nc2c(ncn2C2OC(CO)C(O)C2O)c(=O)o1` (configuration not stated): the GI50 in the experiment with A549 was > 100 µM (inactive); in the experiment with SF-268 it was > 100 µM (inactive); in the experiment on DU-145, > 100 µM (inactive); in the experiment with HL-60, > 45.1 µM (inactive); in the experiment with NCI-H522, 18.6 µM (inactive); with UACC-257, > 100 µM (inactive). The GI50 with RXF 393 was > 100 µM (inactive); with UO-31 it was > 87.1 µM (inactive); in the experiment on COLO 205 it was > 42 µM (inactive); in the experiment with HOP-92, > 100 µM (inactive); in the experiment with PC-3, > 100 µM (inactive); in the experiment with RPMI-8226, > 52.8 µM (inactive). Also, the GI50 was > 100 µM (inactive) with NCI-H226; > 100 µM (inactive) in the experiment on M14; > 100 µM (inactive) in the experiment on OVCAR-5; > 100 µM (inactive) in the experiment with OVCAR-8; 42.9 µM in the experiment on HCT-15.

For `C=C(CO)CC(O)c1cc(OC)ccc1OC` (configuration not stated), the GI50 in the experiment on A549, in the experiment on SF-268, in the experiment on HL-60, in the experiment on NCI-H522, with UACC-257 and with RXF 393 was > 100 µM (inactive) each time. In addition, the GI50 in the experiment with UO-31, in the experiment with COLO 205, with HOP-92, in the experiment with RPMI-8226, with NCI-H226 and in the experiment with M14 was > 100 µM (inactive) in each case. Moreover, the values for the GI50 with OVCAR-5, with OVCAR-8 and in the experiment on HCT-15 were > 100 µM (inactive), > 100 µM (inactive) and greater than 100 µM, respectively.

As for `OCCN1CCN2C=C(C3CCCC4N(CCO)CCN34)CCC21` (configuration not stated), the GI50 in the experiment on A549 was > 100 µM (inactive); with SF-268, 49.8 µM (inactive); with HL-60 it was 5.28 µM (inactive); with NCI-H522 it was > 44 µM (inactive); in the experiment on UACC-257, > 100 µM (inactive); with RXF 393, 20.3 µM (inactive). The GI50 with UO-31 is 97.3 µM (inactive); in the experiment on COLO 205 it was > 65.2 µM (inactive); with HOP-92, > 60.8 µM (inactive); in the experiment on RPMI-8226 it was 8.04 µM (inactive); in the experiment with NCI-H226, > 91 µM (inactive); in the experiment on M14, 44.7 µM (inactive). The GI50 in the experiment with OVCAR-5 was > 100 µM (inactive); with OVCAR-8 it was 35.2 µM (inactive); with HCT-15, 27.9 µM.

`Cc1nc(Nc2ccc(Cl)cc2)sc1C(=O)NNC(=S)NN`: the GI50 in the experiment with A549 was 19 µM (inactive); with SF-268, 21.1 µM (inactive); in the experiment with HL-60 it was 21.4 µM (inactive); with NCI-H522, 16.6 µM (inactive); in the experiment with UACC-257, 13.2 µM (inactive); in the experiment on RXF 393 it was 12.7 µM (inactive). In addition, the GI50 in the experiment on UO-31 was 15.8 µM (inactive); with COLO 205 it was 21.6 µM (inactive); with HOP-92 it was 26.1 µM (inactive); in the experiment with RPMI-8226, 29 µM (inactive); in the experiment on NCI-H226, 19.1 µM (inactive); in the experiment with M14 it was 19.7 µM (inactive). In addition, the values for the GI50 in the experiment with OVCAR-5, in the experiment with OVCAR-8 and in the experiment on HCT-15 were 16.8 µM (inactive), 21.3 µM (inactive) and 20.4 µM, respectively.

For the compound `C=C(C)CCOC(c1ccccc1)(c1ccccc1)c1ccccc1`, the GI50 with A549 was 38.9 µM (inactive); in the experiment with SF-268, 47 µM (inactive); with HL-60, 31.5 µM (inactive); with NCI-H522 it was 18.9 µM (inactive); in the experiment with UACC-257 it was 25.4 µM (inactive); with RXF 393, 18.5 µM (inactive). In addition, the GI50 with UO-31 is 27.7 µM (inactive); in the experiment with COLO 205, 55.1 µM (inactive); in the experiment with HOP-92 it was 33.6 µM (inactive); with RPMI-8226, 33.9 µM (inactive); in the experiment with NCI-H226, 26.3 µM (inactive); in the experiment with M14, 32.8 µM (inactive). Besides, the results for the GI50 in the experiment with OVCAR-5, with OVCAR-8 and in the experiment on HCT-15 were > 100 µM (inactive), 73.5 µM (inactive) and 47.3 µM, respectively.

For `Cc1ccc(S(=O)(=O)N2CCC3(C(/C=C/c4ccccc4)=Nc4ccccc43)C2c2ccccc2)cc1` (configuration not stated), the GI50 in the experiment on A549, with SF-268, in the experiment on HL-60, in the experiment with NCI-H522, in the experiment with UACC-257 and with RXF 393 was > 100 µM (inactive) throughout. Moreover, the GI50 is 61.7 µM (inactive) in the experiment with UO-31; > 100 µM (inactive) in the experiment on COLO 205; > 100 µM (inactive) in the experiment on HOP-92; > 100 µM (inactive) in the experiment with RPMI-8226; 37.9 µM (inactive) with NCI-H226; > 100 µM (inactive) with M14. For the same compound, the GI50 with OVCAR-5 was > 100 µM (inactive); in the experiment on OVCAR-8 it was > 100 µM (inactive); in the experiment on HCT-15, greater than 100 µM.

Take `N#C/C(=C1\OC(=N)C(c2ccc(Cl)cc2)=C1O)c1ccc(Cl)cc1`: the GI50 is 20.5 µM (inactive) with A549; 36.6 µM (inactive) with SF-268; 13.3 µM (inactive) with HL-60; 12 µM (inactive) in the experiment with NCI-H522; 15 µM (inactive) in the experiment with UACC-257; 12.4 µM (inactive) in the experiment on RXF 393. Further, the GI50 was 16.2 µM (inactive) in the experiment on UO-31; 18.8 µM (inactive) with COLO 205; 17.9 µM (inactive) in the experiment on HOP-92; 19 µM (inactive) in the experiment with RPMI-8226; 10 µM (inactive) with NCI-H226; 15.2 µM (inactive) with M14. Besides, the figures for the GI50 in the experiment with OVCAR-5 and in the experiment with OVCAR-8 were 2.99 µM (inactive) and 13.5 µM (inactive), respectively.

On to `COc1ccc2c(c1)[n+]([O-])c(C(=O)C/C(=N/NC(=O)C[N+](C)(C)C)C(=O)Nc1cccc(C)c1C)c(C)[n+]2[O-]`, for which the GI50 with A549 was > 100 µM (inactive); in the experiment with SF-268, > 100 µM (inactive); in the experiment on NCI-H522 it was > 100 µM (inactive); in the experiment on UACC-257, 28.6 µM (inactive); with RXF 393, > 100 µM (inactive); in the experiment on UO-31, > 100 µM (inactive). For the same compound, the GI50 in the experiment with COLO 205 is > 100 µM (inactive); in the experiment with HOP-92 it was 59 µM (inactive); in the experiment on RPMI-8226 it was > 100 µM (inactive); with NCI-H226 it was > 100 µM (inactive); with M14, > 100 µM (inactive); with OVCAR-5 it was 67.1 µM (inactive). For the same compound, the GI50 was > 100 µM (inactive) in the experiment with OVCAR-8 and greater than 100 µM with HCT-15.

Consider `C=CC(=O)NCCSCCCOC1(C(=O)O)CC(O)C(NC(C)=O)C(C(O)C(O)CO)O1` (configuration not stated), for which the GI50 with A549, in the experiment on HL-60, in the experiment on NCI-H522, in the experiment with UACC-257, in the experiment on RXF 393 and in the experiment with UO-31 was > 100 µM (inactive) throughout. Moreover, the GI50 with COLO 205, in the experiment with HOP-92, with RPMI-8226, in the experiment with NCI-H226, in the experiment on M14 and in the experiment on OVCAR-5 was > 100 µM (inactive) throughout. Moreover, the GI50 is > 100 µM (inactive) in the experiment with OVCAR-8 and greater than 100 µM in the experiment on HCT-15.

On to `CC(=O)OC[C@]1(O)CC[C@@]23CC1C[C@@H]2CCC1C(C)(C)CCC[C@@]13C` (some centres not stated), for which the GI50 in the experiment on A549 is 15.8 µM (inactive); with SF-268, 14.9 µM (inactive); with HL-60, 4.95 µM (inactive); in the experiment with NCI-H522, 2.64 µM (inactive); in the experiment on UACC-257 it was 15.8 µM (inactive); with RXF 393, 7.11 µM (inactive). Besides, the GI50 in the experiment on UO-31 is 16.1 µM (inactive); in the experiment on COLO 205, 17.8 µM (inactive); with HOP-92 it was 14.4 µM (inactive); in the experiment with RPMI-8226, 9.23 µM (inactive); in the experiment on NCI-H226, 15.8 µM (inactive); in the experiment on M14 it was 13.9 µM (inactive). The GI50 was 11.3 µM (inactive) with OVCAR-5, 16.6 µM (inactive) in the experiment on OVCAR-8 and 15.8 µM with HCT-15.

In the case of `Sc1nn2c(Cc3ccccc3)nnc2s1`, the GI50 in the experiment on MDA-MB-435, in the experiment with A549, with SF-268, with DU-145, with HL-60 and in the experiment with NCI-H522 was > 100 µM (inactive) in each case. Moreover, the GI50 in the experiment with UACC-257, in the experiment with RXF 393, with UO-31, in the experiment on COLO 205, in the experiment with HOP-92 and with PC-3 was > 100 µM (inactive) in each case. Further, the GI50 in the experiment on RPMI-8226 is > 100 µM (inactive); in the experiment on NCI-H226 it was 89.9 µM (inactive); in the experiment with M14, > 100 µM (inactive); in the experiment on OVCAR-5 it was > 100 µM (inactive); with OVCAR-8 it was > 100 µM (inactive); with HCT-15, greater than 100 µM.
